Reference: patent publication US20050064001A1, “Multi-layer adjuvants for controlled delivery of agro-materials into plant tissues” (priority 2001, published 2005)

What was measured:
[1] = system: Citrus Lemon Urika chlorotic foliage; assay: Biological activity of iron sprayed on chlorotic foliage (leaf color, chlorophyll, iron content, leaf burns); format: in vivo; details: for Leaf Color: score 1 yellow, 2 light green, 3 vigorously green leaves
From the text: Effect of Ferri-Vant (Multi-Layer Adjuvant Coated Fe2(SO4)3 on the Biological Activity of Iron Sprayed on Citrus Lemon Urika Chlorotic Foliage
The Ferri-Vant effect was compared with the untreated control, Fe2(SO4)3 sprayed alone and Fe2(SO4)3 treated with the surfactant Silwet^R L-77. Ten leaves from five trees sprayed for each treatment were sampled and scored for green color. The scoring was based as follows: 1—yellow leaves; 2—light green leaves; 3—vigorously green leaves. Chlorophyll level was determined spectrophotometrically as reported by Moran [Moran, R., Plant Physiol. 69:1376-1381 […]]. Iron content was obtained using the ICP system and leaf burns were visually detected.

[2] = system: Citrus Grandis isolated cuticles; assay: Penetration of phosphorous (32P) through isolated cuticles; format: in vitro ADME; details: 60% relative humidity, 25° C.
Experimental: Effect of MKP-Nutri-Vant^R I on the Percent of Penetration of Phosphorous (^32P) Through Citrus Grandis Isolated Cuticles
(§1) The experiment was carried out for three weeks in a controlled shaking chamber set at 60% relative humidity and 25° C. The values are calculated from the transformation formula −ln(1−Mt/Mo). Mt is the accumulation of radioactivity penetrated in each time period tested; Mo is the total radioactivity applied to the isolated cuticle, based on Schönherr and Riederer [Schonherr, J. and M. Riederer, Plant Cell Environ. […] The values are the means of at least 20 replicates ±S.E.

[3] = system: Citrus Grandis leaves; assay: Penetration of phosphorous (32P) into leaves; format: in vitro ADME; details: 60% relative humidity, 25° C.
Experimental: as §1
Effect of MKP-Nutri-Vant II on the Percent of Penetration of Phosphorous (^32P) into Citrus Grandis Leaves
The experiment was carried out for two weeks in a controlled shaking chamber set at 60% relative humidity and 25° C. All the details are similar to those in the previous table.

O=S(=O)([O-])[O-].O=S(=O)([O-])[O-].O=S(=O)([O-])[O-].[Fe+3].[Fe+3] [Fe2(SO4)3 alone, Fe2(SO4)3]
Leaf Color ([1]; day 0): 1 | Leaf Color ([1]; day 2): 1 | Iron Content at day4 ([1]; day 4, leaves, ICP system): 0.61 mg/g | Leaf Color ([1]; day 4): 1.3 ± 0.4 | Chlorophyll level at day 4, Chl. A ([1]; day 4, spectrophotometric): 2.8 mg/sq. cm leaf area | Chlorophyll level at day 4, Chl. B ([1]; day 4, spectrophotometric): 1.2 mg/sq. cm leaf area | Leaf Color ([1]; day 10): 1.2 ± 0.4

O=P([O-])(O)O.[K+] [MK^32P alone, Monopotassium phosphate]
% Penetration of 32P ([2]; 0 hours, mean of at least 20 replicates ±S.E.): 0% | % Penetration of 32P ([2]; 24 hours, mean ±S.E.): 2.6 ± 0.8% | % Penetration of 32P ([2]; 48 hours, mean ±S.E.): 3.4 ± 1.1% | % Penetration of 32P ([2]; 96 hours, mean ±S.E.): 5.7 ± 1.4% | % Penetration of 32P ([2]; 168 hours, mean ±S.E.): 6.3 ± 1.9% | % Penetration of 32P ([2]; 336 hours, mean ±S.E.): 7.5 ± 1.6% | % Penetration of 32P ([2]; 504 hours, mean ±S.E.): 7.9 ± 1.9% | % Penetration of 32P ([3]; 0 hours): 0% | % Penetration of 32P ([3]; 48 hours): 3.1 ± 0.8% | % Penetration of 32P ([3]; 96 hours): 4.7 ± 0.6% | % Penetration of 32P ([3]; 168 hours): 5.5 ± 0.6% | % Penetration of 32P ([3]; 336 hours): 6.4 ± 0.4%
